In data set [1] the test system is HCT-15, HT29, Lovo and HCT-8 cells. Kind of data set: In-vitro toxicity test (CCK-8), statements over all four cell lines. Conditions: 48 hours. Type of data set: cell-based, human. As for the experimental part:
First, HCT-15 cells were plated on a 96-well plate at a density of 5×10^3 cell/well. […] 48 hours later, the medium was removed and the cells were treated with a cell counting kit (CCK-8, Dojindo, Japan) at 37° C. for 1 hour. Absorbance was measured at 450 nm using a VERSAmax™ microplate reader (Molecular Devices Corp., CA, USA). The cell viability of each group (n=5) was represented as a percentage of normal untreated cells (control group). […] After removing the medium, cell viability was evaluated by CCK-8 assay.

The subject of data set [2] is HCT-15 tumor-bearing mice. Kind of data set: Tumor-targeting ability and biodistribution of DOX, C-prodrug, EGF-prodrug. It counts as in vivo. Conditions: intravenous, 24 hours. An excerpt: In addition, the tumor-targeting ability of DOX, the C-prodrug and the EGF-prodrug was compared.
Data set [3] deals with HCT-8-bearing mice. Kind of data set: Antitumor effect of EGF-prodrug in vivo. Conditions: 1 mg/kg of DOX, 6 times every 3 days, 21 days. As for the experimental part: 2×10^6 HCT-15 cells or HCT-8 cells were subcutaneously inoculated to Balb/c-nude mice. […] The injection was carried out into the tail vein every 3 days for a total of 6 times. Antitumor effect was evaluated by sacrificing the mice to which the HCT-15 or HCT-8 cells were administered and measuring the volume of tumor tissue. The volume of the tumor tissue was calculated every day or every other day by 0.53×length×width^2. Tumor growth was monitored for 21 days. After sacrificing the mice, the HCT-15 or HCT-8 tumor tissues were collected. The dissected tumors were imaged and fixed by treating with 4% paraformaldehyde. […] The sections were used for histological or pathological investigation. They were stained with H&E for visualization and subjected to TUNEL assay using a […] TUNEL system (Promega, WI, USA) for investigation of the apoptosis of cancer cells. The tumor tissues stained with H&E and TUNEL were observed using a BX51 optical microscope (Olympus, Tokyo, Japan) and a TCS SP8 confocal laser microscope.

For data set [4], the system named is HCT-15 tumor-bearing mice. The data set can be described thus: In-vivo and ex-vivo fluorescence imaging of EGF-Cy5.5, C-probe, EGF-probe. Conditions: cryosections, confocal. As for the experimental part: The biodistribution of the EGF-probe intravenously administered to mice having HCT-15, HT29, Lovo or HCT-8 tumors was evaluated. First of all, 6-week-old Balb/c-nude mice (Nara-Biotec, Gyeonggi-do, Korea) were prepared and each cell was subcutaneously inoculated into the nude mice at the right flank at a concentration of 2×10^6 cells/mouse to generate tumors. […] At 24 hours after the administration of the EGF-probe, the mouse was imaged using an IVIS fluorescence imaging system. […] IVIS fluorescence imaging was conducted at 24 hours after the administration. Major organs and tumors were obtained and imaged with an IVIS imaging system. The fluorescence intensity of the organs and tumors was analyzed using the Living Image 2.50 software. […] The tumor tissue sections were counter-stained with DAPI and visualized with a confocal microscope.

Experimental findings from patent US20240159744A1, “COLON CANCER DIAGNOSIS OR DETECTION COMPOSITION FOR PREDICTING RESPONSE TO DRUG, AND COMPOSITION FOR PREVENTING OR TREATING COLON CANCER” (priority 2020, published 2024) are described below.

In the case of `COc1cccc2c1C(=O)c1c(O)c3c(c(O)c1C2=O)C[C@@](O)(C(=O)CO)C[C@@H]3O[C@H]1C[C@H](N)[C@H](O)[C@H](C)O1.Cl` [DOX, doxorubicin hydrochloride], the cytotoxicity versus concentration result in data set [1] is on record as “increased with the concentration”. Further, the “ex-vivo distribution in organs and tumor” value in data set [2] is “significant amounts were accumulated also in the lung, liver and kidney”. Moreover, the tumor size entry in data set [3] is listed as “not controlled significantly”. Take (Ac)CGFLG-DOX [C-prodrug]: the tumor size entry in data set [3] was “not controlled significantly”. Take Cy5.5-GFLGGK(BHQ-3)GG-COOH [C-probe]: the “fluorescence of tumor tissue sections” value in data set [4] is recorded as “much weaker fluorescence signals”.
